Experimental data as given in patent US8906925B2, “Pyrido[4,3-B]indoles containing rigid moieties” (Medivation Technologies, Inc., priority 2008, dated 2014).
Where two headings read alike, the source gives them in different places.

How the values were obtained:
[1] = target: histamine receptor H1 (Homo sapiens, UniProt P35367); assay: Histamine H1 radioligand binding ([3H]Pyrilamine); conditions: read-out: Histamine Binding (1 μM) H1, percent inhibition of specific binding, 1 μM
Summary of the method: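 Values are percent inhibition of specific [3H]pyrilamine (1.2 nM) binding with compounds at ≤1 μM (1% DMSO vehicle); 180 min incubation at 25 °C, pH 7.4 Tris buffer, on CHO-expressed human H1 receptor; 1 μM pyrilamine defined nonspecific binding, bound ligand counted after filtration.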

[2] = target: human dopamine D2L receptor (Homo sapiens, UniProt P14416); assay: Dopamine D2L radioligand binding ([3H]Spiperone); conditions: compound at 1 μM
human dopamine D2L receptor, sequence (P14416 whole entry): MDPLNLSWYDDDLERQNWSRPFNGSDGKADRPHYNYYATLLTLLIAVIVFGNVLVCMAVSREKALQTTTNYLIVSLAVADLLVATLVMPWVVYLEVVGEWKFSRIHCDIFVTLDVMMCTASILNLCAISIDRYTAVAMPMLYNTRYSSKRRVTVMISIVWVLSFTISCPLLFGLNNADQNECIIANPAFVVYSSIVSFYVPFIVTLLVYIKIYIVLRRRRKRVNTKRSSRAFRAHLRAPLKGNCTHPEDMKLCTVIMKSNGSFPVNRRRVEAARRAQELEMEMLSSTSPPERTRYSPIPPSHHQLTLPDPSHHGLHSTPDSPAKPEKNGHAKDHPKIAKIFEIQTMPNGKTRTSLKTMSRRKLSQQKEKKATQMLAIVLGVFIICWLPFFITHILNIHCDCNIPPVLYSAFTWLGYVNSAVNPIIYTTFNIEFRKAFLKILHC
Excerpt: Non-specific binding was estimated in the presence of […] Haloperidol. Receptor proteins were filtered and washed, the filters were then counted to determine [^3H]Spiperone specifically bound. […] Biochemical assay results are presented as the percent inhibition of specific binding in Table 9.

[3] = percent inhibition of specific binding, read-out: Inhibition of ligand binding, Dopamine D2L
[4] = […] [3H]Spiperone, read-out: Inhibition of ligand binding, Dopamine D2L (percent inhibition of specific binding)

histamine receptor H1, sequence (P35367 whole entry): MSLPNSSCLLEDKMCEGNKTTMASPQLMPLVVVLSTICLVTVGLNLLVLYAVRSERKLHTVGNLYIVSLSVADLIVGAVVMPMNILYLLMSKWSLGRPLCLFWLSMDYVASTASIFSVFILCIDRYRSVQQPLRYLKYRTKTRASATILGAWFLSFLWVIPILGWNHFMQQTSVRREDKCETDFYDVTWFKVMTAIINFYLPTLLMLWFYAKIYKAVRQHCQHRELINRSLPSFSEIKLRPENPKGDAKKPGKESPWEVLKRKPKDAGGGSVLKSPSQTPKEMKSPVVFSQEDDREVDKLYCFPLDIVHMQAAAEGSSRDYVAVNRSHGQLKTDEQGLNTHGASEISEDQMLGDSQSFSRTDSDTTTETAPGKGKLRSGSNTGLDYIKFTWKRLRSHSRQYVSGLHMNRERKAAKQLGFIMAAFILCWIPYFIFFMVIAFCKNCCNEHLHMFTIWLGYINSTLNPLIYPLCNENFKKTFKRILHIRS

Structure (SMILES)	inhibition at 1 µM [1] [%]	inhibition at 1 µM [2, 3] [%]	inhibition at 1 µM [2, 4] [%]
C/C(=C\n1c2c(c3cc(Cl)ccc31)CN(C)CC2)c1cncnc1 [Compound 346, (E)-8-chloro-2-methyl-5-(2-(pyrimidin-5-yl)prop-1-enyl)-2,3,4,5-tetrahydro-1H-pyrido[4,3-b]indole]	17	26	
CSc1ccc(/C(C)=C/n2c3c(c4cc(C)ccc42)CN(C)CC3)cc1 [Compound No. 459, (E)-2,8-dimethyl-5-(2-(4-(methylthio)phenyl)prop-1-enyl)-2,3,4,5-tetrahydro-1H-pyrido[4,3-b]indole]	53		71
C/C(=C\n1c2c(c3cc(Cl)ccc31)CN(CCCC(O)c1ccc(F)cc1)CC2)c1ccncc1 (centres unmarked) [compound 395, (E)-4-(8-chloro-5-(2-(pyridin-4-yl)prop-1-enyl)-3,4-dihydro-1H-pyrido[4,3-b]indol-2(5H)-yl)-1-(4-fluorophenyl)butan-1-ol]	102		99
C/C(=C\n1c2c(c3cc(C)ccc31)CN(C)CC2)c1ccsc1 [compound 387, (E)-2,8-dimethyl-5-(2-(thiophen-3-yl)prop-1-enyl)-2,3,4,5-tetrahydro-1H-pyrido[4,3-b]indole]	84		99
C/C(=C\n1c2c(c3cc(C)ccc31)CN(C)[C@@H](C)C2)c1ccncc1 [compound 389, (S,E)-2,3,8-trimethyl-5-(2-(pyridin-4-yl)prop-1-enyl)-2,3,4,5-tetrahydro-1H-pyrido[4,3-b]indole]	39		49
C/C=C(/Cn1c2c(c3cc(C)ccc31)CN(C)CC2)c1ccncc1 [Compound No. 361, (E)-2,8-dimethyl-5-(2-(pyridin-4-yl)but-2-enyl)-2,3,4,5-tetrahydro-1H-pyrido[4,3-b]indole]	96		51
C/C(=C\n1c2c(c3cc(C)ccc31)CN(CC(F)(F)F)CC2)c1ccncc1 [Compound 291, (E)-8-methyl-5-(2-(pyridin-4-yl)prop-1-enyl)-2-(2,2,2-trifluoroethyl)-2,3,4,5-tetrahydro-1H-pyrido[4,3-b]indole]	-4	0	
C/C(=C\n1c2c(c3ccc(C(C)C)cc31)CN(C)CC2)c1ccncc1 [Compound 334, (E)-7-isopropyl-2-methyl-5-(2-(pyridin-4-yl)prop-1-enyl)-2,3,4,5-tetrahydro-1H-pyrido[4,3-b]indole]	18	90	
C/C=C(\Cn1c2c(c3cc(Cl)ccc31)CN(C)CC2)c1ccncc1 [Compound No. 360, (Z)-8-chloro-2-methyl-5-(2-(pyridin-4-yl)but-2-enyl)-2,3,4,5-tetrahydro-1H-pyrido[4,3-b]indole]	47		36
C/C(=C\n1c2c(c3cc(Cl)ccc31)CN(C)[C@@H](C)C2)c1ccncc1 [compound 391, (S,E)-8-chloro-2,3-dimethyl-5-(2-(pyridin-4-yl)prop-1-enyl)-2,3,4,5-tetrahydro-1H-pyrido[4,3-b]indole]	84		72
Cc1ccc2c(c1)c1c(n2C(C)C(O)c2ccccc2)CCN(C)C1 (centres unmarked) [Compound No. 468, 2-(2,8-dimethyl-3,4-dihydro-1H-pyrido[4,3-b]indol-5(2H)-yl)-1-phenylpropan-1-ol]	82		12
CN1CCc2c(c3cc(Cl)ccc3n2/C=C(\c2ccccc2)c2ccncc2)C1 [Compound No. 460, (E)-8-chloro-2-methyl-5-(2-phenyl-2-(pyridin-4-yl)vinyl)-2,3,4,5-tetrahydro-1H-pyrido[4,3-b]indole]	17		67
C/C(=C/n1c2c(c3cc(C)ccc31)CN(C)CC2)C1CCCCC1 [Compound 368, (Z)-5-(2-cyclohexylprop-1-enyl)-2,8-dimethyl-2,3,4,5-tetrahydro-1H-pyrido[4,3-b]indole]	82		74
COc1ccc(C#Cn2c3c(c4cc(C)ccc42)CN(C)CC3)cn1 [Compound No. 494, 5-((6-methoxypyridin-3-yl)ethynyl)-2,8-dimethyl-2,3,4,5-tetrahydro-1H-pyrido[4,3-b]indole]	2		13
C/C(=C\n1c2c(c3cc(C)ccc31)CN(C)CC2)C1CCCCC1 [Compound 320, (E)-5-(2-cyclohexylprop-1-enyl)-2,8-dimethyl-2,3,4,5-tetrahydro-1H-pyrido[4,3-b]indole]	65	61	
C/C(=C\n1c2c(c3cc(C)ccc31)CN(CCCO)CC2)c1ccncc1 [Compound 288, (E)-3-(8-methyl-5-(2-(pyridin-4-yl)prop-1-enyl)-3,4-dihydro-1H-pyrido[4,3-b]indol-2(5H)-yl)propan-1-ol]	25	92	
C/C(=C\n1c2c(c3cc(C)ccc31)CN(C)CC2)c1cccc(S(C)(=O)=O)c1 [Compound No. 473, (E)-2,8-dimethyl-5-(2-(3-(methylsulfonyl)phenyl)prop-1-enyl)-2,3,4,5-tetrahydro-1H-pyrido[4,3-b]indole]	35		59
CC/C(=C\n1c2c(c3cc(Cl)ccc31)CN(C)CC2)c1ccncc1 [Compound 284, (E)-8-chloro-2-methyl-5-(2-(pyridin-4-yl)but-1-enyl)-2,3,4,5-tetrahydro-1H-pyrido[4,3-b]indole]	40	84	
Cc1ccc2c(c1)c1c(n2C#Cc2cscn2)CCN(C)C1 [Compound No. 498, 4-((2,8-dimethyl-3,4-dihydro-1H-pyrido[4,3-b]indol-5(2H)-vyl)ethynyl)thiazole]	65		9

The remaining lines, values ahead:

inhibition at 1 µM [1] [%]	inhibition at 1 µM [2, 3] [%]	inhibition at 1 µM [2, 4] [%]	Structure (SMILES)
97		57	C/C(=C\c1ccccc1)n1c2c(c3cc(C)ccc31)CN(C)CC2 [compound 428, (E)-2,8-dimethyl-5-(1-phenylprop-1-en-2-yl)-2,3,4,5-tetrahydro-1H-pyrido[4,3-b]indole]
-4		42	C/C(=C\n1c2c(c3cc(N4CCCC4)ccc31)CN(C)CC2)c1ccncc1 [compound 446, (E)-2-methyl-5-(2-(pyridin-4-yl)prop-1-enyl)-8-(pyrrolidin-1-yl)-2,3,4,5-tetrahydro-1H-pyrido[4,3-b]indole]
101		30	C/C(=C/c1ccccc1)n1c2c(c3cc(C)ccc31)CN(C)CC2 [compound 429, (Z)-2,8-dimethyl-5-(1-phenylprop-1-en-2-yl)-2,3,4,5-tetrahydro-1H-pyrido[4,3-b]indole]
15		87	C/C(=C\n1c2c(c3cc(Cl)ccc31)CNCC2)c1ccncc1 [compound 402, (E)-8-chloro-5-(2-(pyridin-4-yl)prop-1-enyl)-2,3,4,5-tetrahydro-1H-pyrido[4,3-b]indole]
43		20	CNC(=O)c1ccc(/C(F)=C/n2c3c(c4cc(C)ccc42)CN(C)CC3)cc1F [compound 424, (Z)-4-(2-(2,8-dimethyl-3,4-dihydro-1H-pyrido[4,3-b]indol-5(2H)-yl)-1-fluorovinyl)-2-fluoro-N-methylbenzamide]
43		35	C/C(=C\n1c2c(c3cc(N(C)C)ccc31)CN(C)CC2)c1ccncc1 [compound 450, (E)-N,N,2-trimethyl-5-(2-(pyridin-4-yl)prop-1-enyl)-2,3,4,5-tetrahydro-1H-pyrido[4,3-b]indol-8-amine]
26		51	Cc1ccc2c(c1)c1c(n2/C=C(/c2ccccc2)c2ccncc2)CCN(C)C1 [compound 453, (Z)-2,8-dimethyl-5-(2-phenyl-2-(pyridin-4-yl)vinyl)-2,3,4,5-tetrahydro-1H-pyrido[4,3-b]indole]
1		20	C/C(=C\n1c2c(c3cc(N4CCCCC4)ccc31)CN(C)CC2)c1ccncc1 [compound 445, (E)-2-methyl-8-(piperidin-1-yl)-5-(2-(pyridin-4-yl)prop-1-enyl)-2,3,4,5-tetrahydro-1H-pyrido[4,3-b]indole]
10		74	CN1CCc2c(c3cc(Cl)ccc3n2C=C(c2ccccc2)c2ccccc2)C1 [compound 407, 8-chloro-5-(2,2-diphenylvinyl)-2-methyl-2,3,4,5-tetrahydro-1H-pyrido[4,3-b]indole]
31		-10	CNC(=O)c1ccc(/C(F)=C(/c2ccc(C(=O)NC)c(F)c2)n2c3c(c4cc(C)ccc42)CN(C)CC3)cc1F [compound 423, (E)-4,4′-(1-(2,8-dimethyl-3,4-dihydro-1H-pyrido[4,3-b]indol-5(2H)-yl)-2-fluoroethene-1,2-diyl)bis(2-fluoro-N-methylbenzamide)]
95		97	C/C(=C\n1c2c(c3cc(Cl)ccc31)CN(CCCC1(c3ccc(F)cc3)OCCO1)CC2)c1ccncc1 [compound 398, (E)-8-chloro-2-(3-(2-(4-fluorophenyl)-1,3-dioxolan-2-yl)propyl)-5-(2-(pyridin-4-yl)prop-1-enyl)-2,3,4,5-tetrahydro-1H-pyrido[4,3-b]indole]
44		15	C/C(=C\n1c2c(c3cc(N4CCN(C)CC4)ccc31)CN(C)CC2)c1ccncc1 [compound 437, (E)-2-methyl-8-(4-methylpiperazin-1-yl)-5-(2-(pyridin-4-yl)prop-1-enyl)-2,3,4,5-tetrahydro-1H-pyrido[4,3-b]indole]
